Assay results as given in US20260193242A1, “USEFUL COMPOUNDS FOR MODULATING INFLAMMATION” (FLAGSHIP PIONEERING INNOVATIONS VI, LLC, priority 2022, published 2026).

Experiments:
[1] = tested on: LPS induced septic shock, C57/B6L mice; test: LPS induced septic shock model in mice; format: in vivo; conditions: 30 mg/kg PO in Phosal 50, 30 min before LPS 1 mg/kg, plasma 2 hours after LPS, vs vehicle
Experimental: In the LPS induced septic shock model in mice, the TLR4 agonist LPS is injected into the peritoneal cavity of mice, inducing production of pro-inflammatory cytokines that can be measured in blood two hours later (FIG. 2).
Female C57/B6L mice, 5 mice in each group, were injected with LPS (1 mg/kg) to induce septic shock 30 minutes after oral administration of compounds described herein (formulated in Phosal 50) or the controls dexamethasone (formulated in saline), a corticosteroid, and MCC950 (formulated in 0.5% methylcellulose), an inflammasome inhibitor. The mice were euthanized 2 hours after LPS stimulation, and the whole blood was drawn, processed to plasma, and snap frozen. Cytokine levels in plasma were determined by cytometric bead array assay.

[2] = tested on: R848-driven NFκB reporter (SEAP) in THP-1 cells; test: TLR7/8 (R848) stimulated NFκB reporter gene assay in THP1-Dual cells; format: cell-based; conditions: Homo sapiens, THP-1, 10 μM compound, 1 μM R848, THP1-Dual cells; read-out: R848-driven NFκB reporter gene assay (Percent inhibition at 10 μM)
Experimental: (§1) Compounds described herein are added to the human leukemic monocyte-like cell line THP-1 for bioactivity assessment. THP1-Dual cells (InvivoGen, San Diego, CA) feature the Lucia gene, a secreted luciferase reporter gene, under the control of an ISG54 minimal promoter in conjunction with five IFN-stimulated response elements. THP1-Dual cells also express a secreted embryonic alkaline phosphatase (SEAP) reporter gene driven by an IFN-β minimal promoter fused to five copies of the NF-κB consensus transcriptional response element and three copies of the c-Rel binding site. As a result, THP1-Dual cells allow the simultaneous study of the NF-κB pathway, by monitoring the activity of SEAP, and the IRF pathway, by assessing the activity of Lucia luciferase.
(§2) THP-1 dual reporter cells were grown in RPMI 1640 culture medium with 2 mM L-glutamine, 25 mM HEPES, 10% heat-inactivated fetal bovine serum, 100 μg/ml Normocin antibiotic (InvivoGen), Pen-Strep antibiotic (100 U/ml-100 μg/ml, InvivoGen). On the day of the assay, cells were seeded in a 384 flat-bottom well plate at 25,000 cells/well and incubated for 2 hours. Cells were then incubated with 10 μM of the compounds described herein or with 1 μM of IKK-16 (Selleck), a potent inhibitor of IκB kinases (IKKs) or with DMSO (vehicle control) for 2 hours, followed by the addition of the synthetic TLR7/8 agonist R848 at 1 μM and incubation for 16 hours. After incubation was concluded, the cultures supernatants were collected and IRF related activity was assessed by measurement of the Lucia luciferase, using Quanti-Luc assay (InvivoGen). NF-κB pathway activity was assessed by quantifying SEAP using Quanti-Blue assay (InvivoGen).

[3] = tested on: R848-driven IRF reporter (Lucia luciferase, ISG54 promoter/IFN-stimulated response elements) in THP-1 cells; test: TLR7/8 (R848) stimulated interferon response element reporter gene assay in THP1-Dual cells; format: cell-based; conditions: Homo sapiens, THP-1, 10 μM compound, 1 μM R848, THP1-Dual cells; read-out: R848-driven IRF reporter gene assay (Percent inhibition at 10 μM)
Experimental: as §1, §2

[4] = tested on: TNBS-induced colitis, Balb/c mice; test: TNBS-induced model of colitis in mice, dosing from day 2, therapeutic mode; format: in vivo
Experimental: Female Balb/c mice aged 8 weeks and weighing 18-20 g were housed under standard conditions. The mice were divided into groups with 8-10 mice in each group by body weight. Mice in sham group received intracolonic injection with 50% ethanol (0.1 mL) at day 0, whereas mice in other Trinitrobenzene sulfonic acid (TNBS) colitis model groups received intracolonic injection of 2% TNBS solution in ethanol (0.1 mL) at day 0. The reference compound Mesalazine (Selleck) and test articles described here were dosed from day-1 to day 6. Day 6 was the endpoint, and samples were immediately harvested for the last endpoint. Mesalazine was dissolved in distilled water (pH 7.0) and test articles were dissolved in Phosal 50 PG for delivery by oral gavage.
Body weight and Disease Activity Index (DAI) scores were recorded daily to assess the colitis. DAI score was the sum of the weight loss score, stool score and bleeding sub-scores. A blinded scoring system was employed to assess the colitis. The DAI scorer blinded to the group information and animal ID was responsible for the stool consistency and bleeding evaluations. If there was no blood visible with naked eyes, the Fecal occult blood (FOB) test was performed with a fecal occult blood test strip (the improved pyramidon method).
Colon tissue morphology, damage and healing were assessed by histopathology. The colons were harvested, mesentery and adipose tissue were carefully removed, and internal contents were removed by rinsing with cold PBS. The colons were Swiss-rolled and fixed in neutralized paraformaldehyde followed by H&E staining. Clinical pathologists reviewed the H&E staining and scored blinded with animal ID. The pathological scoring standards were: crypt architecture (normal, 0-severe crypt distortion with loss of entire crypts, 3), degree of inflammatory cell infiltration (normal, 0-dense inflammatory infiltrate, 3), muscle thickening (base of crypt sits on the muscularis mucosae, 0-marked muscle thickening present, 3), goblet cell depletion (absent, 0-present, 1) and crypt abscess (absent, 0-present, 1).
The data was compared by ANOVA with post-hoc Dunnett's multiple comparisons test using Graph Pad Prism 7.0 software (San Diego, CA, USA). P-value<0.05 was considered as statistically significant difference. For pairwise comparison of histology scores and cytokines, unpaired t-test was used to calculate statistical significance. Data was expressed as mean±standard error of mean. In figures, statistical significance is denoted by asterisks: *p<0.05 **p<0.01 ***p<0.005, ****p<0.0001.
Procedures were identical to those in Example 26, except that dosing of the compounds described herein, as well as the positive control mesalamine, began on the second day after TNBS administration, as diagrammed in FIG. 18. Animals in this scenario have developed colitis symptoms before administration of test articles. This is more similar to the clinical scenario with patients with inflammatory bowel disorder presenting with symptoms. For this reason, we refer to these conditions as “therapeutic mode”.

[5] = 30 mg/kg PO, QD, dosing from day 2
[6] = 30 mg/kg PO, QD, dosing from day 2, vs Vehicle group

CN1[C@@H](C(=O)O)CC[C@H]1[C@@H]1CSC(c2ccccc2O)=N1 [Compound I-4, (2R,5S)-5-((R)-2-(2-hydroxyphenyl)-4,5-dihydrothiazol-4-yl)-1-methylpyrrolidine-2-carboxylic acid]
IFNγ in plasma [1]: statistically significant decreases
IL-12p70 in plasma [1]: statistically significant decreases
TNFα in plasma [1]: statistically significant decreases
inhibition at 10 µM [2]: ≥ 50%
inhibition at 10 µM [3]: ≥ 50%
Disease Activity Index (DAI) scores [4, 5]: improvement
body weight (% initial weight) recovery [4, 5]: faster recovery rate
total histology scores [4, 5]: lower
IL-1B in plasma [4, 6]: decreased
IL-6 in plasma [4, 6]: decreased
colon recovery and mucosal healing ([4]; therapeutic mode): promoted the colon recovery and mucosal healing
